The NIST ThermoML archive (doi:10.1016/j.jct.2014.05.014)

Experiment: refractive index (Na D-line) (dimensionless); cn = amount concentration of the nth substance listed, in mol/dm3
Conditions: 101.3 kPa, Liquid, Standard Abbe refractometry

CC(N)C(=O)[O-].[K+] (stereo not drawn) [potassium DL-alaninate] + O
refractive index
Conditions	303.15 K	308.15 K	313.15 K	318.15 K	323.15 K	328.15 K	333.15 K	338.15 K	343.15 K
c1 = 0.526	1.3409	1.34021	1.33947	1.33867	1.33782	1.33692	1.33599	1.335	1.33402
c1 = 1.009	1.34955	1.3488	1.34802	1.3472	1.34634	1.34542	1.34446	1.34349	1.34248
c1 = 1.501	1.35822	1.35743	1.35661	1.35576	1.35486	1.35394	1.35299	1.352	1.35098
c1 = 2.005	1.36647	1.36566	1.36481	1.36391	1.363	1.36206	1.3611	1.3601	1.3591
c1 = 2.501	1.37461	1.37375	1.37285	1.37195	1.37103	1.37004	1.36904	1.36803	1.36701
c1 = 2.986	1.38281	1.38192	1.38098	1.38002	1.37908	1.37809	1.3771	1.3761	1.37507
c1 = 3.498	1.39058	1.38964	1.3887	1.38775	1.38677	1.38576	1.38471	1.38364	1.38259

CC(N)C(=O)[O-].[Na+] (stereo not drawn) [sodium DL-alaninate] + O
refractive index
Conditions	303.15 K	308.15 K	313.15 K	318.15 K	323.15 K	328.15 K	333.15 K	338.15 K	343.15 K
c1 = 0.498	1.3409	1.34021	1.33945	1.33864	1.33778	1.33688	1.33592	1.3349	1.33388
c1 = 0.99	1.34952	1.34876	1.34796	1.34712	1.34624	1.34528	1.34432	1.34333	1.34232
c1 = 1.485	1.35799	1.35719	1.35636	1.35547	1.35455	1.35358	1.35259	1.35156	1.35053
c1 = 1.983	1.3663	1.36544	1.36454	1.36361	1.36264	1.36164	1.36061	1.35958	1.35853
c1 = 2.476	1.37433	1.37341	1.37246	1.37149	1.37049	1.36949	1.36845	1.36735	1.36627
c1 = 3.063	1.38382	1.38284	1.3818	1.38074	1.3797	1.37866	1.37755	1.37643	1.37534
